Experimental data as given in PubChem BioAssay AID652082 (The Scripps Research Institute Molecular Screening Center, 2013).
The source made the active and inactive calls. No rule for the calls is given here.

Target: Kappa-type opioid receptor (Homo sapiens) (UniProt P41145)
Assay: kappa opioid receptor blockers, retest – cell-based, fluorescence, confirmation (AID 652082)
Settings: OPRK1 cell line, fluorescence antagonist read-out; at 9 µM; hits give high values

Chain of Kappa-type opioid receptor (Homo sapiens) (P41145 whole entry, looked up): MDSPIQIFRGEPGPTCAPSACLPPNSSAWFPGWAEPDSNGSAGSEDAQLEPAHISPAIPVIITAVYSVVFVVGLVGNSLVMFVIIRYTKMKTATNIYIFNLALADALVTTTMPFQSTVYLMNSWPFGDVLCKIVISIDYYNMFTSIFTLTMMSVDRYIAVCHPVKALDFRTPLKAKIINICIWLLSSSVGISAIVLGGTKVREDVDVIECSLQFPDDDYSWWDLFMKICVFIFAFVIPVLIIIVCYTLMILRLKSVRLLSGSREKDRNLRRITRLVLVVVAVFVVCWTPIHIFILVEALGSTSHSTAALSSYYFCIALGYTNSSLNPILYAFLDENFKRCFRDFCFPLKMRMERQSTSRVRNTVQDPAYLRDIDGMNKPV

Row | inhibition | Compound
1 | 73.3% | COc1cc([N+](=O)[O-])c(OC)cc1SCc1n[nH]c(=S)n1-c1ccc(C)cc1
2 | 59.6% | COc1ccccc1NC(=O)NCCN1CCN(Cc2ccccc2)CC1
3 | 5.32% (inactive) | Cc1ccc(/C=c2\sc3nc4ccccc4n3c2=O)o1
4 | -1.54% (inactive) | CC(=O)Nc1onc(C)c1-c1nc(-c2ccc(Cl)cc2Cl)cs1
5 | 58.2% | CN(C)c1cccc2c1c(NC(=O)Nc1ccc(OCc3ccccc3)cc1)nn2C
6 | 18.1% (inactive) | COc1ccc([N+](=O)[O-])c(S(=O)(=O)c2ccc(Cl)cc2)n1
7 | 46.6% (inactive) | CCOC(=O)c1cn[nH]c1NC(=S)Nc1cccc(C(F)(F)F)c1
8 | 9.13% (inactive) | O=C(NNC(=O)C(F)(F)F)c1ccc[nH]1
9 | 76.8% | CCCCNc1ccc2c3c(cccc13)C(=O)N(CCCC)C2=O
10 | 36.2% (inactive) | COc1ccc(OS(=O)(=O)c2sc(Br)cc2Br)cc1
11 | -3.43% (inactive) | CCOC(=O)[C@@H](N)CCSC
12 | 62.5% | N#Cc1cccnc1NNC(=O)COCC(=O)O
13 | 23% (inactive) | CSc1ccc(/C=C/c2onc(C)c2[N+](=O)[O-])s1
14 | 79% | O=C(c1cnn(-c2ccc(Cl)cc2)c1C(F)(F)F)N1CCN(c2ncnc3ccsc23)CC1
15 | 0.7% (inactive) | CCOC(=O)C1CCN(Cc2cccc(NC(=O)c3cccs3)c2)CC1
16 | 43.2% (inactive) | Nc1c(C(=O)c2ccccc2)sc2nsc(SCCN3CCCC3)c12
17 | 15.4% (inactive) | CSc1sc(C(=O)NC(=O)Nc2ccc(Cl)cc2)c2c1-c1nocc1CC2
18 | 11.6% (inactive) | C=CCNC(=S)NNC(=O)c1oc2nc(-c3ccc(Cl)cc3)cc(-c3ccccc3)c2c1N
19 | 15.3% (inactive) | N#Cc1c(S/C=C(\O)c2cc3ccccc3o2)nc2c(c1C(F)(F)F)CCCC2

Row | inhibition | Compound
20 | 7.76% (inactive) | CC(CCC(C)OC(=O)c1ccccc1C(=O)O)OC(=O)c1ccccc1C(=O)O (stereo unspecified)
21 | 11.3% (inactive) | CC(=O)c1sc2nc(-c3cccs3)cc(C(F)(F)F)c2c1N
22 | 12% (inactive) | COC(=O)c1ccc(/C=C2\C(=O)Nc3ccccc32)n1-c1ccc(F)cc1
23 | 9.35% (inactive) | O=C1c2ccc(Cl)c3c(N4CCSCC4)ccc(c23)C(=O)N1c1ccccc1
24 | 0.14% (inactive) | O=C(O)C(F)(F)C(F)(F)C(=O)NCc1cccc(Cl)c1
25 | -11.1% (inactive) | CC(=O)N1CCC(C(=O)O/N=C(\N)c2ccc(Cl)cc2)CC1
26 | 68.6% | COC(=O)c1cc(-c2ccc(OC)cc2)c(-c2ccc(OC)cc2)s1
27 | 41.2% (inactive) | NC(=NC(=O)c1cccc(C(F)(F)F)c1)c1ccc(C(F)(F)F)cn1
28 | 95.2% | CCOC(=O)c1cc(C(=O)OC)c(C)nc1N1CCC(NC2CCCCC2O)CC1 (stereo unspecified)
29 | 31.7% (inactive) | C#Cc1cccc(NC(=O)c2sc3nc4c(c(-c5cccs5)c3c2N)CCCC4)c1
30 | 43.7% (inactive) | CN(C)c1cc(NC(=O)Nc2ccccc2)c2ccccc2n1
31 | 59.5% | COc1ccccc1C1CCN(Cc2ccc3c(c2)CCC(C)(C)O3)CC1
32 | 2.74% (inactive) | COc1cccc(C(=O)c2sc3nsc(SCc4ccc(F)cc4)c3c2N)c1
33 | 57.8% | COC(=O)/C=C1\SC(=Nc2ccc(Cl)cc2)N(c2ccc(Cl)cc2)C1=O
34 | 35.5% (inactive) | CCOC(=O)C1CCN(Cc2cccc(NC(=O)c3ccco3)c2)CC1
35 | 3.67% (inactive) | COC(=O)c1cnn(-c2ccc(Cl)cc2)c1C=C(C#N)C#N
36 | 62.9% | O=C(Nc1ccc(F)c(Cl)c1)c1cc(Br)ccc1O
37 | -2.3% (inactive) | O=C(Nc1ccc([N+](=O)[O-])cc1)Nc1csc(-c2cccnc2)n1
38 | 49% (inactive) | CCOC(=O)c1ccc(N2CC3CCCCN3C2c2cccc(OC)c2O)cc1 (stereo unspecified)

Continued, compound first:

Row | Compound | inhibition
39 | O=[N+]([O-])c1ccc(C2=NN(c3ccccc3)C(c3ccco3)C2)cc1 (stereo unspecified) | 82.9%
40 | Cn1c(=O)c2cc3cc(Cl)ccc3nc2c2c(=O)n(-c3ccccc3)c(=O)n(-c3ccccc3)c21 | 58.9%
41 | CCCCCCCCCCCC(=O)ON1C(=O)CCC1=O | 36.2% (inactive)
42 | Oc1c(Cl)cc(Cl)cc1C1Nc2cc(Cl)c(C(F)(F)F)cc2N1 (stereo unspecified) | 58.8%
43 | O=C(Nc1ccc(Cl)cc1Cl)c1cc([N+](=O)[O-])cc2c1-c1ccc([N+](=O)[O-])cc1C2=O | 59.2%
44 | CCN(CC)c1ccc(/C=C/c2ccc([N+](=O)[O-])cc2C#N)cc1 | 49.6% (inactive)
45 | S=C(NNc1c(Cl)cncc1Cl)Nc1ccc(Cl)cc1Cl | 51.8% (inactive)
46 | CN(C)c1ccc(-n2nnnc2SCc2ccc(Cl)cc2)cc1 | 26% (inactive)
47 | O=[N+]([O-])c1ccc(-c2ccc(/C=N/Nc3ccccc3)o2)cc1 | 82.8%
48 | N#Cc1cccc(C#N)c1Oc1ccc(N)cc1 | -6.85% (inactive)
49 | CCCCCC[n+]1ccccc1/C=C/c1ccc(N(C)C)cc1 | 79.5%
50 | COc1cccc(/C=C(\C#N)c2ccc([N+](=O)[O-])cc2)c1OC | 34.5% (inactive)
51 | CC1COC(c2cccc([N+](=O)[O-])c2)N1 (stereo unspecified) | -9.85% (inactive)
52 | O=C(/C=C/c1cc(-c2ccccc2)c(C(F)(F)F)s1)c1cccs1 | 20.3% (inactive)
53 | O=[N+]([O-])c1ccc(N/N=C2\CCOc3ccc(F)cc32)cc1 | 25.4% (inactive)
54 | Clc1ccc2nc3c(nc2c1)Nc1ccccc1S3 | 80.7%
55 | O=C(N/C(=C\c1ccc(-c2ccc([N+](=O)[O-])cc2)o1)c1nc2ccccc2[nH]1)c1ccccc1 | 58.7%
56 | O=[N+]([O-])c1ccc(-c2ccc(/C=N/NC(=S)Nc3cccc(F)c3)o2)cc1 | 60.3%
57 | Nc1c(C(=O)N/N=C/c2ccc3c(c2)OCO3)sc2nnc(-c3ccccc3)c(-c3ccccc3)c12 | 77.2%
58 | CS(=O)(=O)/C(C#N)=C\c1ccc(Cl)s1 | 4.17% (inactive)
59 | c1ccc(-c2cc3ncnc(NCc4ccc5c(c4)OCO5)c3s2)cc1 | -5.98% (inactive)
60 | Clc1ccc2c(Nc3ccc4c(c3)OCO4)ccnc2c1 | 30% (inactive)
61 | O=[N+]([O-])c1ccc(N2CCc3ccccc32)cc1 | 17.4% (inactive)
62 | Brc1ccc(-c2csc(Nc3ccncc3)n2)cc1 | 34.9% (inactive)
63 | O=c1c2cc(-c3ccccc3)sc2nnn1/N=C/c1cccs1 | 3.84% (inactive)
64 | C=CCn1c(-c2sc3nnc(-c4ccccc4)c(-c4ccccc4)c3c2N)n[nH]c1=S | 30.5% (inactive)
65 | O=[N+]([O-])c1c(Sc2ccc(Cl)cc2)ccc2nsnc12 | 37.2% (inactive)
66 | O=[N+]([O-])c1ccc(N/N=C/c2ccc(-c3cccs3)s2)nc1 | 71.3%
